Measured values reported in patent publication US20180264191A1, “SYSTEMS AND METHODS FOR NEURAL DRUG DELIVERY AND MODULATION OF BRAIN ACTIVITY” (priority 2017, published 2018).

Columns and labels:
[1] = tested on: hippocampal (CA1) unit; test: Acute tetrode recording with local micro-injection through MiNDS in anesthetized rats; format: in vivo; conditions: anesthetized rat
Method: Acute electrophysiological recordings and micro-injections were performed in anesthetized rats to test the system with a tetrode W electrode. […] The channel impedance values of the tetrode electrode (T-1, T-2, T-3, T-4) were 430, 370, 440, and 370 kΩ. […] The mean of the action potentials recorded from this unit was stable during the experiment (i.e. before first saline infusion, before first and second muscimol infusions), confirming that the unit was present during the trial, as shown in FIGS. 18A-C. […] Peak 1 and Peak 2 are the maximal value of waveforms measured by T-1, T-2, respectively. The projections of the peak values calculated from each recorded action potential are shown in FIG. 18C, reflecting the cluster-cutting used to isolate signals coming from different neurons. […]
The dura was removed and the device was lowered into the brain to a depth of 2.5 mm and a location with unit activity was identified. The local neural signals were recorded with Open Ephys GUI software. Prior to drug infusion, the local signals were recorded for 30 mins to ensure stable spikes were located. After the baseline recording, 150 nl of saline were infused into the site at a flow rate of 100 nl/min and the activity was recorded for another 30 mins. […] Recording was recorded for another 30 mins post muscimol infusion. […]

[2] = tested on: substantia nigra (SN); test: Behavioral study: rotations after unilateral infusion into the substantia nigra through S-MiNDS with iPrecio pumps; format: in vivo; conditions: rat
Method: The capability of interfacing the system with deep brain structures to remotely control behavior was tested. In experiments in rats, the S-MiNDS was implanted in the SN and was connected to two implanted iPrecio pumps, containing either saline or muscimol. Unilateral delivery of muscimol to the SN is known to evoke preferential ipsilateral rotation, reflecting a hemiparkinsonian state. […] These studies were performed multiple times on each of multiple animals. This illustrates the ability of system to repeatedly and reproducibly deliver small volumes of drug to effect a reversible behavioral change.
A similar protocol as described above was used to implant the MiNDS with the iPrecio pumps. Rats were anesthetized, and their heads were shaved and disinfected. A longer incision was made to accommodate the insertion of the pumps. As aforementioned, the MiNDS burr hole was made 5 mm posterior to the bregma and 2.5 mm lateral to the midline, and a support screw burr hole was made 3 mm posterior and 2 mm lateral to the bregma, on the opposite side. The screw was implanted, such that 1 mm protruded beneath the skull. A subcutaneous cavity for the pump was made by blunt dissection, and the pump was inserted through the incision. The MiNDS probe was implanted and cemented to the skull using C&B Metabond adhesive (Parkell Inc., Edgewood N.Y.) and Orthojet dental cement (Lange Dental, Wheeling, Ill. USA), and the incision was closed using 5-0 monofilament non-resorbable suture and 3M tissue glue. Animals were closely observed during the recovery period and given analgesics and wet food. By 1 week post-surgery, in all cases animals were ambulatory and otherwise healthy. Animals implanted with pumps were used for the behavioral studies described below. […]
A rat was implanted with the MiNDS and two pumps pre-loaded and flushed with either saline or muscimol, as described above. The animal was placed within the dish and recorded over the course of 5 hrs. […]
Videos were imported into Ethovision, where they were analyzed for ipsilateral and contralateral rotations over time. […]

[3] = tested on: local neuronal activity in the neocortex; test: Unit firing and local field potential recording with serial infusions through L-MiNDS in awake head-fixed monkey; format: in vivo, rhesus macaque (Macaca mulatta); conditions: for rate of detected spike activity (local unit firing): muscimol 2 mg/ml in aCSF, 500 nl at 100 nl/min for 5 mins
Method: The functionality of the system (specifically, the L-MiNDS) was confirmed in a large, awake behaving animal model, the rhesus macaque (macacca mulatta) monkey. The L-MiNDS was used to modulate and monitor local neuronal activity in the neocortex of a head-fixed monkey through serial infusions of aCSF and muscimol, which respectively preserve and inhibit baseline unit firing activity, as depicted in FIG. 21A. The 1st vertical line on left indicates the start of aCSF infusion (at 20 mins) and the 2nd vertical line denotes the muscimol infusion (at 63.7 mins). The impedance measurement of the W-electrode was 1.5 MΩ in brain and at pre-implantation in saline was 2 MΩ. Modulation of neuronal firing activity was monitored by recording signals at the MiNDS electrode adjoining the infusion ports. […] Then, aCSF was infused for 5 mins 20 s at an infusion rate of 100 nl/min. This control infusion had minimal effect on the local firing rate and unit waveform during and after the infusion. Muscimol was then infused at the same location for 5 mins at infusion rate of 100 nl/min. […] Vertical and horizontal bars denote 10 μV and 2 ms, respectively.
A second experiment was conducted targeting deeper layers of the neocortical region (i.e., dorsal bank of the cingulate cortex) to determine if recovery of the reduced neural activity through an additional infusion of aCSF could be induced at this adjoining site. This larger infusion of aCSF was indeed effective in reversing the inhibitory effect of muscimol, as shown by the observation of an increasing frequency of spikes with waveforms closely resembling those found during the pre-muscimol period, as depicted in FIGS. 23A-23C. In particular, the 1st vertical line on left in FIG. 23A denotes the start of aCSF infusion (at 20 mins), the second vertical line represents the start of muscimol infusion (at 43 mins), and the third vertical line denotes the start of aCSF infusion (at 92 mins). In FIG. 23Cm vertical and horizontal bars denote 10 μV and 2 ms, respectively. […] Compared to prior work, this is the first system that allows serial infusion of multiple distinct solutions to be delivered in a focal, independent manner in a NHP. The system's integrated electrode can also be used to record local field potentials (LFPs), as shown in FIGS. 24A and 24B, which may be important for clinical applications that may require chronic recording from a fixed brain location. For example, pathological beta-band LFP in Parkinson's disease and/or epileptic discharges in epilepsy could be recorded from the chronically integrated electrode to track and treat dysfunction in future applications. In FIG. 24A, two curves for each period represent 95% confidence intervals. Each pair of curves correspond to signals averaged over 10 mins periods as labeled in the legend at the top right of each plot. […] Alpha (5-11 Hz) and beta (11-30 Hz) band power fluctuate without correlation to the infusions. The prominent power at 60 Hz is due to coupling of power mains noise. […]
Solutions used for infusion through the MiNDS were aCSF (artificial cerebrospinal fluid, Tocris Biosciences) and muscimol (2 mg/ml in aCSF, Sigma-Aldrich). The MiNDS and guide cannula were sonicated in a detergent solution (Alconox, Inc.), rinsed with water, and then sonicated and soaked in 70% ethanol followed by water until they were ready for implantation. […]

[4] = 1.67 μl of muscimol (0.2 mg/ml) into SN, 180° turns

## NCc1cc(=O)[nH]o1 [muscimol]
[1]; local infusion via iPrecio pump, first muscimol infusion at 60 mins
  firing rate of hippocampal (CA1) unit after first muscimol injection: a slow decrease of the firing rate occurred
[1]; second muscimol infusion at 90 mins
  rate of detected spike activity of hippocampal (CA1) unit after second muscimol injection: abolished the rate of detected spike activity
[2]; [4]
  counter-clockwise rotations: remained the same
  increase in the number of clockwise rotations: 52 fold
[2]; remotely controlled infusion of 1.67 μl of muscimol (0.2 mg/ml) into SN
  parkinsonian behavior (preferential ipsilateral rotation): reliably induced
[3]; after muscimol infusion
  LFP power for alpha frequencies: persists
  LFP power for broadband, beta, and gamma frequency ranges: decreases significantly
[3]; after muscimol infusion, 10 mins intervals
  LFP broadband power from 30-100 Hz: decreases immediately following muscimol infusion
[3]
  rate of detected spike activity (local unit firing): immediately suspended activity
[3]; listed as Muscimol
  rate of detected spike activity (local unit firing): immediately decreased the rate of detected spike activity
